Patent US20120016009A1, “Optimized Methods For Delivery Of DSRNA Targeting The PCSK9 Gene” (priority 2008, published 2012)
In the oligonucleotide strings, read from the 5' end, every base follows the letter of its sugar. An asterisk marks phosphorothioate; unmarked linkages are phosphodiester. Other units and linkages are bracketed, terminal groups are in braces. A string of capitals states the bases alone. [Ab] = 3'-terminal abasic nucleotide; e = 2'-O-(2-methoxyethyl) (MOE); d = 2'-deoxy (DNA); m = 2'-O-methyl; r = 2'-OH (RNA); {P} = phosphate; f = 2'-fluoro

tested on: PCSK9 mRNA; assay: In vitro screening of modified dsRNAs targeted to PCSK9 (Table 2b; cell type not given); format: cell-based; settings: 30 nM siRNA
Method: For transfection with siRNA, HuH7, HepG2, or HeLa cells were seeded at a density of 2.0×10^4 cells/well in 96-well plates and transfected directly. Transfection of siRNA (30 nM for single dose screen) was carried out with lipofectamine 2000 (Invitrogen GmbH, Karlsruhe, Germany, cat. No. 11668-019) as described by the manufacturer.
24 hours after transfection HuH7 and HepG2 cells were lysed and PCSK9 mRNA levels were quantified with the Quantigene Explore Kit (Genosprectra, Dumbarton Circle Fremont, USA, cat. No. QG-000-02) according to the protocol. PCSK9 mRNA levels were normalized to GAP-DH mRNA. For each siRNA eight individual datapoints were collected. siRNA duplexes unrelated to PCSK9 gene were used as control. The activity of a given PCSK9 specific siRNA duplex was expressed as percent PCSK9 mRNA concentration in treated cells relative to PCSK9 mRNA concentration in cells treated with the control siRNA duplex.
Tables 1b and 2b (and FIG. 6A) summarize the results and provide examples of in vitro screens in different cell lines at different doses. Silencing of PCSK9 transcript was expressed as percentage of remaining transcript at a given dose.

Row | Substance | Remaining mRNA in % of controls at siRNA conc. of 30 nM
1 | AD-12388: modified dsRNA, SEQ ID NO:1471/1472 (chain 1 rGfCfCfUrGrGrArGrGfUfUfUrAfUfUfCrGrGrArA; chain 2 {P}-mUfUmCfCmGfAmAfUmAfAmAfCmUfCmCfAmGfGmC) | 19%
2 | AD-12052: modified dsRNA, SEQ ID NO:1339/1340 (chain 1 rGmCmCmUrGrGrArGmUmUmUrAmUmUmCrGrGrArArArAdTdT[Ab]; chain 2 rUrUrUrUrCrCrGrArArUrArArArCrUrCrCrArGrGrCdTdT[Ab]) | 81%
3 | AD-12384: modified dsRNA, SEQ ID NO:1463/1464 (chain 1 rGmCmCmUrGrGrArGmUmUmUrAmUmUmCrGrGrArAdT*dT; chain 2 {P}-fUfUfCfCrGrArAfUrArArAfCfUfCfCrArGrGfCdT*dT) | 8%
4 | AD-12061: modified dsRNA, SEQ ID NO:1357/1358 (chain 1 GCCUGGNAGUUUAUUCGGAATT; chain 2 rUrUrCrCrGmAmArUrAmAmArCrUrCrCrAmGmGmCdT*dT; chain 1: chemistry not given here; sense strand contains an undefined nucleotide n) | 7%
5 | AD-12362: modified dsRNA, SEQ ID NO:1421/1422 (chain 1 GCCUGGAGUUUAUUCGGAA; chain 2 mUrUmCrCrGrArAmUrArArArCrUmCmCrArGrGrCdT*dT; chain 1: sugars from the 5' end rererererererererer, all phosphodiester, methylation of C and T or U not given here) | 51%
6 | AD-12373: modified dsRNA, SEQ ID NO:1443/1444 (chain 1 GCCUGGAGUUUAUUCGGAATT; chain 2 rUrUrCrCrGrArArUrArArArCrUrCrCrArGrGrCdT*dT; chain 1: DNA at T, 2'-MOE at CU, RNA at AG, linkages o19 s1 (s phosphorothioate, o phosphodiester), methylation of C and T or U not given here) | 55%
7 | AD-12038: modified dsRNA, SEQ ID NO:1311/1312 (chain 1 rGmCmCmUrGrGrArGmUmUmUrAmUmUmCrGrGrArAdT*dT; chain 2 mUrUrCrCrGrArArUrArArArCrUrCrCrArGrGrCdT*dT) | 13%
8 | AD-12049: modified dsRNA, SEQ ID NO:1333/1334 (chain 1 rGmCmCmUrGrGrArGmUmUmUrAmUmUmCrGrGrArArArArG; chain 2 rCrUrUrUrUrCrCrGrArArUrArArArCrUrCrCrArGrGrC*mC*mU) | 34%
9 | AD-12367: modified dsRNA, SEQ ID NO:1431/1432 (chain 1 GCCUGGAGUUUAUUCGGAATT; chain 2 rUrUrCrCrGmAmArUrAmAmArCrUrCrCrAmGmGmCdT*dT; chain 1: DNA at T, 2'-MOE at CU, RNA at AG, linkages o19 s1 (s phosphorothioate, o phosphodiester), methylation of C and T or U not given here) | 42%
10 | AD-12363: modified dsRNA, SEQ ID NO:1423/1424 (chain 1 GCCUGGAGUUUAUUCGGAA; chain 2 rUrUrCrCrGmAmArUrAmAmArCrUrCrCrAmGmGmC*mC*mU; chain 1: sugars from the 5' end rererererererererer, all phosphodiester, methylation of C and T or U not given here) | 11%
11 | AD-12347: modified dsRNA, SEQ ID NO:1393/1394 (chain 1 rGrCrCrUrGrGrArGrUrUrUrArUrUrCrGrGrArAdT*dT; chain 2 {P}-mUfUmCfCmGfAmAfUmAfAmAfCmUfCmCfAmGfGmCdT*dT) | 11%
12 | AD-12386: modified dsRNA, SEQ ID NO:1467/1468 (chain 1 fGmCfCmUfGmGfAmGfUmUfUmAfUmUfCmGfGmAfA; chain 2 {P}-fUfUfCfCrGrArAfUrArArAfCfUfCfCrArGrGfCdT*dT) | 11%
